Source: patent EP0063525A1, “Dibenzazepine tetracyclic derivatives, process for their preparation and pharmaceutical compositions containing them” (CENTRE NATIONAL DE LA RECHERCHE SCIENTIFIQUE (CNRS), priority 1981, dated 1982)
Like-named read-outs stand apart in the source and are kept apart here.

Tests used:
Souris [1] = experiment: antireserpine activity: reserpine hypothermia; assay type: in vivo; conditions: réserpine 5 mg/kg i.p. 17 h before
Experimental: On note ensuite les températures témoins (réserpine), puis les températures 1, 2, 3 et 4 heures après l'administration des produits étudiés.
Les animaux sont répartis en lots de 4 animaux et reçoivent par voie intrapéritonéale la réserpine à une dose de 5 mg/kg. 17 heures après cette injection, on mesure la température corporelle de l'animal à l'aide d'une sonde thermocouple introduite dans le rectum; chaque lot reçoit ensuite la substance par voie intrapéritonéale. Le lot témoin reçoit la même quantité de solvant et par la même voie. La température corporelle est ensuite mesurée toutes les heures pendant 4 heures.
Les résultats sont rassemblés dans un tableau récapitulatif-où sont indiqués : • - la température moyenne pour chaque lot relevée 17 heures après l'injection de la réserpine, • - la moyenne des variations de température pour chaque lot relevées 1,2, 3 et 4 heures après l'injection de la substance étudiée, • - la somme des variations de températures pendant 4 heures, • - le pourcentage d'augmentation de la température pour chaque produit par rapport aux témoins.

Souris [2] = experiment: tetrabenazine ptosis; assay type: in vivo; conditions: for Ptosis 30 minutes / Ptosis 60 minutes / Ptosis 90 minutes / Ptosis 120 minutes: score 0-4 per eye
Experimental: (§1) Ce test permet de révéler également une activité antidépressive avec l'avantage d'une lecture plus rapide qu'avec la réserpine.
(§2) Les souris sont réparties par lots de 5.
Le ptosis est noté avant l'injection de tétrabénazine, 30 minutes, 60 minutes, 90 minutes et 120 minutes après.
On a adopté la notation suivante : • - 0 : pour un oeil ouvert, • - 1 : pour un oeil fermé au quart, • - 2 : pour un oeil fermé à moitié, • - 3 : pour un oeil fermé aux trois-quarts, • - 4 : pour un oeil fermé complètement.
(§3) Le lot témoin comprend 20 souris.

Souris [3] = experiment: tetrabenazine hypothermia; assay type: in vivo
Experimental: as §1
Les produits sont injectés 30 minutes avant l'administration de tétrabénazine.
Les températures sont relevées aux temps : 0, 30 minutes, 60 minutes, 90 minutes et 120 minutes.
as §2
Les températures sont relevées avant l'injection de tétrabénazine, 30 minutes, 60 minutes, 90 minutes et 120 minutes après.
as §3

souris femelles = experiment: acute toxicity in the mouse, intraperitoneal; assay type: in vivo; conditions: voie intrapéritonéale, dead mice of the group
Description: (§4) Les produits ont été administrés par voie intrapéritonéale à des souris femelles dont le poids variait de 18 à 30 g.
(§5) Les animaux injectés ont été maintenus dans une salle thermostatée, nourris et abreuvés à volonté.
(§6) La mortalité a été relevée à 1 heure, 4 heures, 24 heures et 48 heures.

[4] = acute toxicity in the mouse, intraperitoneal; assay type: in vivo, Souris; conditions: mouse, in vivo, ip, voie intrapéritonéale; for LD50 at 48 h: souris femelles, read-out: DL 50; for mortality at 48 h: read-out: Mortalité %
Description: as §4, §5, §6

[5] = product i.p. 25 mg/kg 30 min before tétrabénazine 32 mg/kg i.v.
[6] = product i.p. 50 mg/kg 30 min before tétrabénazine 32 mg/kg i.v.
[7] = product i.p. 100 mg/kg 30 min before tétrabénazine 32 mg/kg i.v.
[8] = product i.p. 200 mg/kg 30 min before tétrabénazine 32 mg/kg i.v.

## CC(CN(C)C)CN1c2ccccc2C=Cc2ccccc21 (stereo not drawn) [compound 22, (méthyl-2 diméthylamino-3 propyl)-5 dibenzo [b,f] 5H azépine, reference compound]
Souris [1]; ip, 4 h, product i.p. 25 mg/kg, read-out: % d'augmentation par rapport aux témoins
  change in vivo at 25 mg/kg: 85%
Souris [1]; product i.p. 25 mg/kg
  variation de température T= 2h: +0,5
  variation de température T=3h: +1
  variation de température T=4h: +0,4
Souris [2]; ip, 2 h, ptosis, product i.p. 25 mg/kg 30 min before tétrabénazine 32 mg/kg i.v., read-out: % de protection
  inhibition in vivo at 25 mg/kg: 11%
Souris [2]; [5]
  Ptosis Total: 26,8
  Ptosis 30 minutes: 5,6
  Ptosis 60 minutes: 6,8
  Ptosis 90 minutes: 6,8
  Ptosis 120 minutes: 7,6
Souris [3]; ip, 2 h, hypothermie, product i.p. 25 mg/kg 30 min before tétrabénazine 32 mg/kg i.v., read-out: % de protection
  inhibition in vivo at 25 mg/kg: 50%
Souris [3]; [5]
  Température après tétrabénazine 30 minutes: -3,5
  Température après tétrabénazine 60 minutes: -0,1
  Température après tétrabénazine 90 minutes: -0,6
  Température après tétrabénazine 120 minutes: -0,1
  Température après tétrabénazine Total: -4,3
Souris femelles; 25 mg/kg
  Mortalité en 1 heure: 0
  Mortalité en 48 heures: 0
Souris femelles; 50 mg/kg
  Mortalité en 1 heure: 0
  Mortalité en 48 h.: 1
Souris femelles; 100 mg/kg
  Mortalité en 1 heure: 4
  Mortalité en 48 h.: 5
[4]
  LD50 at 48 h: 75 mg/kg
[4]; 25 mg/kg
  mortality at 48 h: 0%
[4]; 50 mg/kg
  mortality at 48 h: 20%
[4]; 100 mg/kg
  mortality at 48 h: 100%

## CN(C)CCCN1c2ccccc2-c2onc(-c3ccccc3)c2-c2ccccc21 [compound 18]
Souris [1]; ip, 4 h, product i.p. 50 mg/kg, read-out: % d'augmentation par rapport aux témoins
  change in vivo at 50 mg/kg: 25%
Souris [1]; ip, 4 h, product i.p. 150 mg/kg, read-out: % d'augmentation par rapport aux témoins
  change in vivo at 150 mg/kg: 175%
Souris [2]; ip, 2 h, ptosis, product i.p. 50 mg/kg 30 min before tétrabénazine 32 mg/kg i.v., read-out: % de protection
  inhibition in vivo at 50 mg/kg: 24%
Souris [2]; [6]
  Ptosis Total: 23
  Ptosis 30 minutes: 3,6
  Ptosis 60 minutes: 5,8
  Ptosis 90 minutes: 6,4
  Ptosis 120 minutes: 7,2
Souris [3]; ip, 2 h, hypothermie, product i.p. 50 mg/kg 30 min before tétrabénazine 32 mg/kg i.v., read-out: % de protection
  inhibition in vivo at 50 mg/kg: 8%
Souris [3]; [6]
  Température après tétrabénazine 30 minutes: -3,1
  Température après tétrabénazine 60 minutes: -1,8
  Température après tétrabénazine 90 minutes: -1,9
  Température après tétrabénazine 120 minutes: -1,1
  Température après tétrabénazine Total: -7,9
Souris femelles; 50 mg/kg
  Mortalité en 1 heure: 0
  Mortalité en 48 h.: 0
Souris femelles; 100 mg/kg
  Mortalité en 1 heure: 0
  Mortalité en 48 h.: 0
Souris femelles; 150 mg/kg
  Mortalité en 1 heure: 0
  Mortalité en 48 h.: 0
Souris femelles; 200 mg/kg
  Mortalité en 1 heure: 5
  Mortalité en 48 h.: 5
Souris femelles; 250 mg/kg
  Mortalité en 1 heure: 4
  Mortalité en 48 h.: 5
[4]
  LD50 at 48 h: 225 mg/kg
[4]; 50 mg/kg
  mortality at 48 h: 0%
[4]; 100 mg/kg
  mortality at 48 h: 0%
[4]; 150 mg/kg
  mortality at 48 h: 0%
[4]; 200 mg/kg
  mortality at 48 h: 100%
[4]; 250 mg/kg
  mortality at 48 h: 100%

## CN(C)CCN1c2ccccc2C2C(c3ccccc3)=NN(c3ccccc3)C2c2ccccc21 (stereo not drawn) [compound 7, (β-diméthylaminoéthyl)-8 diphényl-1,3 tétrahydro-1,3a, 8, 12b (dibenzo [b,f]pyrazolo [3,4-d]) azépine]
Souris [1]; ip, 4 h, product i.p. 100 mg/kg, read-out: % d'augmentation par rapport aux témoins
  change in vivo at 100 mg/kg: 125%
Souris [1]; product i.p. 100 mg/kg
  variation de température T= 2h: +1,1
  variation de température T=3h: +0,7
  variation de température T=4h: +0,1
Souris [2]; ip, 2 h, ptosis, product i.p. 100 mg/kg 30 min before tétrabénazine 32 mg/kg i.v., read-out: % de protection
  inhibition in vivo at 100 mg/kg: 14%
Souris [2]; [7]
  Ptosis Total: 25,8
  Ptosis 30 minutes: 3,8
  Ptosis 60 minutes: 7
  Ptosis 90 minutes: 7
  Ptosis 120 minutes: 8
Souris [3]; ip, 2 h, hypothermie, product i.p. 100 mg/kg 30 min before tétrabénazine 32 mg/kg i.v., read-out: % de protection
  inhibition in vivo at 100 mg/kg: 26%
Souris [3]; [7]
  Température après tétrabénazine 30 minutes: -3,2
  Température après tétrabénazine 60 minutes: -1,3
  Température après tétrabénazine 90 minutes: -1
  Température après tétrabénazine 120 minutes: -0,8
  Température après tétrabénazine Total: -6,3
Souris femelles; 250 mg/kg
  Mortalité en 1 heure: 0
  Mortalité en 48 h.: 0
Souris femelles; 500 mg/kg
  Mortalité en 1 heure: 0
  Mortalité en 48 h.: 0
Souris femelles; 900 mg/kg
  Mortalité en 1 heure: 1
  Mortalité en 48 h.: 1
[4]
  LD50 at 48 h: > 500 mg/kg
[4]; 250 mg/kg
  mortality at 48 h: 0%
[4]; 500 mg/kg
  mortality at 48 h: 0%

## CN(C)CCN1c2ccccc2-c2c(-c3ccccc3)nn(-c3ccccc3)c2-c2ccccc21 [compound 13]
Souris [1]; ip, 4 h, product i.p. 200 mg/kg, read-out: % d'augmentation par rapport aux témoins
  change in vivo at 200 mg/kg: 70%
Souris [1]; product i.p. 200 mg/kg
  variation de température T=1h: +1,9
  variation de température T= 2h: +1
  variation de température T=3h: +0,5
  variation de température T=4h: 0
Souris [2]; ip, 2 h, ptosis, product i.p. 200 mg/kg 30 min before tétrabénazine 32 mg/kg i.v., read-out: % de protection
  inhibition in vivo at 200 mg/kg: 14%
Souris [2]; [8]
  Ptosis Total: 25,9
  Ptosis 30 minutes: 4
  Ptosis 60 minutes: 6,8
  Ptosis 90 minutes: 7,6
  Ptosis 120 minutes: 7,5
Souris [3]; ip, 2 h, hypothermie, product i.p. 200 mg/kg 30 min before tétrabénazine 32 mg/kg i.v., read-out: % de protection
  inhibition in vivo at 200 mg/kg: 15%
Souris [3]; [8]
  Température après tétrabénazine 30 minutes: -3,4
  Température après tétrabénazine 60 minutes: -1,9
  Température après tétrabénazine 90 minutes: -1,1
  Température après tétrabénazine 120 minutes: -0,9
  Température après tétrabénazine Total: -7,3
Souris femelles; 50 mg/kg
  Mortalité en 1 heure: 0
  Mortalité en 48 h.: 0
Souris femelles; 100 mg/kg
  Mortalité en 1 heure: 0
  Mortalité en 48 h.: 0
Souris femelles; 250 mg/kg
  Mortalité en 1 heure: 0
  Mortalité en 48 h.: 0
Souris femelles; 400 mg/kg
  Mortalité en 1 heure: 3
  Mortalité en 48 heures: 3
Souris femelles; 750 mg/kg
  Mortalité en 1 heure: 2
  Mortalité en 48 h.: 5
[4]
  LD50 at 48 h: 350 mg/kg
[4]; 50 mg/kg
  mortality at 48 h: 0%
[4]; 100 mg/kg
  mortality at 48 h: 0%
[4]; 250 mg/kg
  mortality at 48 h: 0%
[4]; 400 mg/kg
  mortality at 48 h: 60%
[4]; 750 mg/kg
  mortality at 48 h: 100%
